According to patent US12622917B2, “High-activity Wnt pathway inhibitor compound” (ADLAI NORTYE BIOPHARMA CO., LTD., priority 2020, dated 2026):
Read-outs that look alike come from different tables or passages of the source.

Assays:
Assay type in all cases: cell-based
DU4475 = test: Proliferation inhibition, Wnt mutant cell line DU4475; settings: DU4475, Wnt pathway-dependent, 96 hours, read-out: Antiproliferative IC50 DU4475
Procedure, shortened: (§1)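 IC50 for growth inhibition came from a 96-hour incubation with serially diluted compound (3-fold, top 20 uM final), with cells seeded at 1000 per well the day before and read by a Promega viability assay.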

RKO = test: Proliferation inhibition, non-Wnt mutant control cell line RKO; settings: Wnt-independent control cell line, 96 hours, read-out: Antiproliferative IC50 RKO
Procedure, shortened: as §1

Hela = test: Proliferation inhibition, non-Wnt mutant control cell line Hela; settings: Wnt-independent control cell line, 96 hours, read-out: Antiproliferative IC50 Hela
Source text: The cell lines used in the experiment are Colo205 and DU4475 cell lines whose Wnt pathway is continuously activated and whose proliferation is Wnt pathway-dependent; while the BELA and RKO cell lines, whose Wnt pathway is not activated under normal circumstances and the proliferation is independent of Wnt pathway, as control cell lines. It is Judged that the inhibitory effect of the compound of the present invention on Wnt-dependent proliferation is not caused by other non-specific toxicity.
Treat the Colo205, Du4475, HELA and RKO cell lines cultured in their respective mediums in the logarithmic growth phase, collect the cells and prepare a uniform cell suspension of known concentration, and then add it to the 96-well cell culture plate Cell suspension, so that each well contains 1000 cells. Put it into a 5% CO2 incubator and incubate at 37° C. for 20-24 h. On the second day, the fully dissolved, 3-fold serially diluted compound was added to each cell culture well, so that the final maximum concentration in the cell culture well was 20 uM, and the culture was continued for 96 hours. In this test, Promega's cell viability detection test is used for detection. The more the cells proliferate, the stronger the final signal intensity will be. The detection instrument is SpectraMax, full wavelength mode. The wells only added with DMSO were used as positive control wells, and the wells that were not inoculated with cells were used as negative control wells. […] The IC50 value of cell proliferation inhibition was used to evaluate the inhibitory effect of the compound on the Wnt pathway and the toxic effect on normal cells (Table 2).

Colo205 = test: Proliferation inhibition, Wnt mutant cell line Colo205; settings: Colo205, Wnt pathway-dependent, 96 hours, read-out: Antiproliferative IC50 Colo205
Procedure, shortened: as §1

[1] = tested on: Colo205-LUC-TCF/LEF M1 reporter cell line (Wnt pathway); test: Colo205-LUC-TCF/LEF M1 reporter gene (luciferase) inhibition; settings: 4 hours incubation, luciferase readout
Procedure, shortened: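 Luminescent readout of TCF/LEF-regulated luciferase after a 4 h, 37° C compound exposure in a stable Colo205 reporter clone (10,000 cells/well). Serial 3-fold dilutions started at 20 uM; IC50 derived using DMSO-treated cells and no-cell wells as controls.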

Compound | IC50 (DU4475; Homo sapiens, DU-4475) [µM] | IC50 (RKO; Homo sapiens) [µM] | IC50 (Hela; Homo sapiens) [µM] | IC50 (Colo205; Homo sapiens, COLO 205) [µM] | IC50 [1] [µM] | IC50 (DU4475) [µM] | IC50 (RKO) [µM] | IC50 (Hela) [µM] | IC50 (Colo205) [µM]
Cc1cn2c3c(nc(NCc4cnn(Cc5ccc(F)cc5)c4)nc13)N(C)[C@@H](C)C2 [65 (W32)] | 0.0417 | 1.72 | 3.49 | 0.0435 | 0.02 | – | – | – | –
C[C@H]1Cn2ccc3nc(NCc4ccc(OCc5ccccc5)cc4)nc(c32)N1C [74 (W69)] | 0.046 | 1.69 | 5.51 | 0.039 | 0.01 | – | – | – | –
C[C@H]1CCn2ccc3nc(NCc4cnn(Cc5ccc(F)cc5)c4)nc(c32)N1C [63 (W22)] | 0.0363 | 3.04 | 2.59 | 0.0146 | 0.023 | – | – | – | –
C[C@H]1CN(C)c2nc(NCc3cnn(Cc4ccc(C(F)(F)F)nc4)c3)nc3ccn1c23 [Example 19, (S)-4,6-dimethyl-N-((1-((6-(trifluoromethyl)pyridin-3-yl)methyl)-1H-pyrazol-4-yl)methyl)-5,6-dihydro-4H-pyrrolo[3,2,1-de]pteridin-2-amine] | 0.009 | > 10 | > 10 | 0.008 | 0.009 | – | – | – | –
(S)-6,7-dimethyl-4-(((1-((6-(trifluoromethyl)pyridin-3-yl)methyl)-1H-pyrazol-4-yl)methyl)amino)-7,8-dihydro-3,5,6,9a-tetraazabenzo[cd]azulene-9(6H)-one [Example 6] | – | – | – | – | 0.057 | 0.059 | > 10 | > 10 | 0.046
C[C@H]1Cn2ccc3nc(NCc4cnn(Cc5ccc(C(F)(F)F)nc5)c4)nc(c32)N1CC(F)(F)F [70 (W55)] | 0.0131 | 1.73 | 1.41 | 0.0131 | 0.012 | – | – | – | –
CC(C)N1C[C@H](C)n2ccc3nc(NCc4cnn(Cc5ccc(C(F)(F)F)nc5)c4)nc1c32 [Example 23, (S)-4-isopropyl-6-methyl-N-((1-((6-(trifluoromethyl)pyridin-3-yl)methyl)-1H-pyrazol-4-yl)methyl)-5,6-dihydro-4H-pyrrolo[3,2,1-de]pteridin-2-amine] | 0.015 | 3.38 | > 10 | 0.016 | 0.011 | – | – | – | –
C[C@H]1Cn2ccc3nc(NCc4ccc(Oc5ccc(C(F)(F)F)nc5)nc4)nc(c32)N1C [77 (W86)] | 0.0051 | 4.01 | 2.92 | 0.0047 | 0.008 | – | – | – | –
FC(F)(F)c1ccc(Cn2cc(CNc3nc4c5c(ccn5C[C@@H]5COCCN45)n3)cn2)cn1 [Example 28, (R)—N-((1-((6-(trifluoromethyl)pyridin-3-yl)methyl)-1H-pyrazol-4-yl)methyl)-7a,8,10,11-tetrahydro-7H-[1,4]oxazino[3,4-h]pyrrolo[3,2,1-de]pteridin-2-amine] | 0.034 | > 10 | > 10 | 0.029 | 0.027 | – | – | – | –
[2H]C1([2H])[C@H](COC)N(C)c2nc(NCc3cnn(Cc4ccc(C(F)(F)F)nc4)c3)nc3ccn1c23 [Example 24, (R)-5-(methoxymethyl)-4-methyl-N-((1-((6-(trifluoromethyl)pyridin-3-yl)methyl)-1H-pyrazole-4-yl)methyl)-5,6-dihydro-4H-pyrrolo[3,2,1-de]pteridin-6,6-d2-2-amine] | 0.0097 | > 10 | > 10 | 0.009 | 0.013 | – | – | – | –
C[C@H]1Cn2ccc3nc(NCc4cnn(CC5CCC(F)(F)CC5)c4)nc(c32)N1C [83 (W116)] | 0.0051 | 7.47 | 4.9 | 0.0051 | 0.01 | – | – | – | –
CN1c2nc(NCc3cnn(Cc4ccc(C(F)(F)F)nc4)c3)nc3ccn(c23)C[C@@H]1C1CC1 [75 (W77)] | 0.0067 | 4.26 | 3.86 | 0.0092 | 0.015 | – | – | – | –
C[C@H]1C(=O)N2CCCc3nc(NCc4ccc(Oc5ccc(C(F)(F)F)nc5)cc4)nc(c32)N1C [101 (W213)] | 0.073 | 3.93 | 6.98 | 0.086 | 0.047 | – | – | – | –
C[C@H]1CN(C)c2nc(NCc3cnn(Cc4ccc(C(F)(F)F)nc4)c3)nc3cc(C(F)F)n1c23 [Example 21, (S)-8-(difluoromethyl)-4,6-dimethyl-N-((1-((6-(trifluoromethyl)pyridin-3-yl)methyl)-1H-pyridine Azol-4-yl)methyl)-5,6-dihydro-4H-pyrrolo[3,2,1-de]pteridin-2-amine] | 0.073 | 3.03 | > 10 | 0.097 | 0.03 | – | – | – | –
C[C@@H]1CN(C)c2nc(NCc3cnn(Cc4ccc(C(F)(F)F)nc4)c3)nc3ccn1c23 [Example 27, (R)-4,6-dimethyl-N-((1-((6-(trifluoromethyl)pyridin-3-yl)methyl)-1H-pyrazol-4-yl)methyl)-5,6-dihydro-4H-pyrrolo[3,2,1-de]pteridin-2-amine] | 0.037 | 4.43 | > 10 | 0.076 | 0.026 | – | – | – | –
C[C@H]1Cn2ccc3nc(NCc4cnn(CCCC(F)(F)F)c4)nc(c32)N1C [81 (W105)] | 0.0193 | > 10 | > 10 | 0.0334 | 0.017 | – | – | – | –
C[C@H]1Cn2ccc3nc(NCc4cnn(Cc5ccc(F)cc5)c4)nc(c32)N1C [61 (W2)] | 0.0118 | 3.44 | 4.17 | 0.0055 | 0.002 | – | – | – | –
C[C@H]1C(=O)N2CCCc3nc(NCc4ccc(Oc5cncc(C(F)(F)F)c5)nc4)nc(c32)N1C [99 (W193)] | 0.021 | > 10 | > 10 | 0.012 | 0.027 | – | – | – | –
C[C@H]1Cn2ccc3nc(NCc4ccc(Oc5ccc(C(F)(F)F)nc5)cc4)nc(c32)N1C [78 (W87)] | 0.0263 | 1.42 | 0.914 | 0.0278 | 0.028 | – | – | – | –
C[C@H]1CN(C2CC2)c2nc(NCc3cnn(Cc4ccc(C(F)(F)F)nc4)c3)nc3ccn1c23 [90 (W152)] | 0.037 | 5.66 | > 10 | 0.042 | 0.024 | – | – | – | –
C[C@H]1Cn2ccc3nc(NCc4ccc(OCCOCC(F)(F)F)nc4)nc(c32)N1C [79 (W95)] | 0.0237 | 6.89 | 3.67 | 0.0439 | 0.02 | – | – | – | –
COC[C@H]1CN(C)c2nc(NCc3cnn(Cc4ccc(C(F)(F)F)nc4)c3)nc3cc(C)n1c23 [Example 25, (R)-6-(methoxymethyl)-4,8-dimethyl-N-((1-((6-(trifluoromethyl)pyridin-3-yl)methyl)-1H-pyrazol-4-yl)methyl)-5,6-dihydro-4H-pyrrolo[3,2,1-de]pteridin-2-amine] | 0.05 | > 10 | > 10 | 0.044 | 0.019 | – | – | – | –
CN1c2nc(NCc3cnn(Cc4ccc(C(F)(F)F)nc4)c3)nc3ccn(c23)CC1CC(F)(F)F (stereo not shown) [87 (W136)] | 0.0054 | 3.98 | 2.92 | 0.0067 | 0.007 | – | – | – | –
C[C@H]1Cn2ccc3nc(NCc4ccc(Oc5ccccc5)cc4)nc(c32)N1C [67 (W46)] | 0.0625 | 1.19 | 1.09 | 0.0604 | 0.034 | – | – | – | –
C[C@H]1Cn2ccc3nc(NCc4cnn(Cc5ccc(F)cc5)c4)nc(c32)N1CCO [62 (W13)] | 0.0135 | 6.54 | 7.21 | 0.0133 | 0.014 | – | – | – | –
[2H]c1cc2nc(NCc3cnn(Cc4ccc(C(F)(F)F)nc4)c3)nc3c2n1C[C@H](C)N3C [72 (W57)] | 0.0028 | 3.23 | > 10 | 0.0048 | 0.007 | – | – | – | –
